Columns and labels:
GC-A = biological target: T1, GC-A (Rattus norvegicus, UniProt P18910); experiment: Effect of natriuretic peptide pre-treatment on ANP-stimulated (GC-A) cGMP accumulation in GH3 cells; type: cell-based; details: 100 nM CNP pre-treatment 6 h, then 100 nM ANP plus 1 mM IBMX 15 min; Fig. 3d; ns, P > 0.05
T1 construct: Evidence of homologous desensitization of endogenous GC-A- and GC-B-mediated signaling in GH3 cells; endogenous in cells; host or cells: GH3 rat somatolactotrope cells
T1 sequence (P18910 29-1057): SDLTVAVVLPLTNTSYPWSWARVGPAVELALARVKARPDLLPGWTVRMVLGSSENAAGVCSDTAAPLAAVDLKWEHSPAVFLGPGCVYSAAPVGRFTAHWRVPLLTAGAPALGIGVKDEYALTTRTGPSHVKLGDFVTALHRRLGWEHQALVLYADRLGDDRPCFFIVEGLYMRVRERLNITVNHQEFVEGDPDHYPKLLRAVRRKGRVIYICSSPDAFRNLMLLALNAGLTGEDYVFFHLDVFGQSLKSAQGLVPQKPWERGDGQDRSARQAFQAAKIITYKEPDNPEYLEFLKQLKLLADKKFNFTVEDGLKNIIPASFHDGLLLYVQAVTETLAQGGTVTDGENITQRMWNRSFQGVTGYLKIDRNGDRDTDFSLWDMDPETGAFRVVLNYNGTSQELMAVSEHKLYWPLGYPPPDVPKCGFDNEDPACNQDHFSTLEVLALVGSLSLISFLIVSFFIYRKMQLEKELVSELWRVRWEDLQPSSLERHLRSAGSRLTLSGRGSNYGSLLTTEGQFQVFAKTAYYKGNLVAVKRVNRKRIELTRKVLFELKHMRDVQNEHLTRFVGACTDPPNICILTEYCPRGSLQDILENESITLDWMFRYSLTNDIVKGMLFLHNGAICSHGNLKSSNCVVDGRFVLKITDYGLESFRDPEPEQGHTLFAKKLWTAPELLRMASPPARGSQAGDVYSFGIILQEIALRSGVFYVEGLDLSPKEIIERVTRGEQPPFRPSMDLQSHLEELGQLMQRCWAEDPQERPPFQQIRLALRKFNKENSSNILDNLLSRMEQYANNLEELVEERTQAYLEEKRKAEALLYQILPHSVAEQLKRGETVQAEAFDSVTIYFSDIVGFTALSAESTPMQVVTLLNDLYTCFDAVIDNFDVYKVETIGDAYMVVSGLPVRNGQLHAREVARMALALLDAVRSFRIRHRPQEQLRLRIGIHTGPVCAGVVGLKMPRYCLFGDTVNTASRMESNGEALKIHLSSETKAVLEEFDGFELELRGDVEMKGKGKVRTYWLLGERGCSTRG
Method: Having established that GC-B signaling but not that of GC-A receptors, underwent rapid homologous desensitization, we next examined the effect of prolonged exposure of each receptor to its specific ligand. GH3 cells pre-treated with either ANP or CNP for 0 (control) to 6 h reduced the response to a subsequent 15-min treatment of ANP or CNP (with IBMX). […] The amount of cGMP measured from the 15-min pre-treatment sample was reduced by 39.6 ± 0.002 % (***P < 0.001). This effect was maintained up to the 6-h pre-treatment with CNP, which was reduced by 37.9 ± 7.1 % compared with the control (***P < 0.001).
Fig. 3 Effect of chronic exposure to CNP and ANP on GC-B- and GC-A-dependent cGMP accumulation in GH3 cells. Cells were initially treated with (a) 100 nM CNP or (b) 100 nM ANP in PSS without IBMX for 0 to 6 h. The medium was removed and replaced with 100 nM CNP (a) or 100 nM ANP (b) for 15 min in the presence of 1 mM IBMX. […]
In similar experiments designed to examine the effect of ANP pre-exposure to GC-A activity, a significant reduction in cGMP accumulation was observed within 30 min of ANP pre-treatment (by 28.9 ± 3.1 % compared with the control, *P < 0.05). […] In order to test the receptor specificity of the observed down-regulation of GC-B upon pre-treatment with CNP and of GC-A upon pre-treatment with ANP, the effects of ANP on GC-B and CNP on GC-A desensitization were determined. […]

growth hormone secretion = details: ref Hartt et al. [1995]; Shimekake et al. [1994]; cited from earlier work
Text: Both humans and mice with mutations in the genes encoding either CNP or its receptor, GC-B, suffer from severe growth disorders (Chusho et al. [2001]) and, in some cases, growth hormone deficiency (Tamura et al. [2004]). Despite significant homology between the three natriuretic peptides and between their receptors, mutations in the genes encoding ANP, BNP, or GC-A fail to phenocopy CNP/GC-B-disrupted mice (Kishimoto et al. [2011]). Our recent observations of GC-B expression in normal fetal pituitary tissue and in a range of human pituitary adenomas (including those from acromegalics) strongly ...

CC[C@H](C)[C@@H]1NC(=O)[C@H](CCCNC(=N)N)NC(=O)[C@H](CC(=O)O)NC(=O)[C@H](CC(C)C)NC(=O)[C@H](CCCCN)NC(=O)[C@H](CC(C)C)NC(=O)CNC(=O)[C@H](Cc2ccccc2)NC(=O)[C@@H](NC(=O)CNC(=O)[C@H](CCCCN)NC(=O)[C@H](CO)NC(=O)[C@H](CC(C)C)NC(=O)CN)CSSC[C@@H](C(=O)O)NC(=O)CNC(=O)[C@H](CC(C)C)NC(=O)CNC(=O)[C@H](CO)NC(=O)[C@H](CCSC)NC(=O)[C@H](CO)NC(=O)CNC1=O [CNP, C-type natriuretic peptide]
ANP-stimulated cGMP after CNP pre-treatment vs control (GC-A): not significantly different from the control samples | growth hormone secretion (growth hormone secretion): act as growth hormone secretogogs

— article PMC3921447, “Homologous and heterologous desensitization of guanylyl cyclase-B signaling in GH3 somatolactotropes” (Cell and Tissue Research, 2013)
